Reference: US20050065062A1, “Method of formulating a pharmaceutical composition” (3M Innovative Properties Company, priority 2003, published 2005)
Like-named read-outs stand apart in the source and are kept apart here.

Experiments:
[1] = 0 h
[2] = Franz diffusion cell, membrane diffusion across poly(dimethylsiloxane) membrane; conditions: for relative order for membrane diffusion rate: ranking of excipients

Row | SMILES | CUMULATIVE AMOUNT OF COMPOUND DIFFUSED ACROSS SKIN [1] [μg/10 mL] | relative order for membrane diffusion rate [2] | CUMULATIVE AMOUNT OF COMPOUND DIFFUSED ACROSS SKIN ([2]; saturated solution in alpha-terpineol, 0 hours) [μg/10 mL] | CUMULATIVE AMOUNT OF COMPOUND DIFFUSED ACROSS SKIN ([2]; saturated solution in alpha-terpineol, 24 hours) [μg/10 mL] | CUMULATIVE AMOUNT OF COMPOUND DIFFUSED ACROSS SKIN ([2]; saturated solution in alpha-terpineol, 48 hours) [μg/10 mL] | CUMULATIVE AMOUNT OF COMPOUND DIFFUSED ACROSS SKIN ([2]; saturated solution in alpha-terpineol, 72 hours) [μg/10 mL] | CUMULATIVE AMOUNT OF COMPOUND DIFFUSED ACROSS SKIN ([2]; saturated solution in isostearic acid, 0 hours) [μg/10 mL] | CUMULATIVE AMOUNT OF COMPOUND DIFFUSED ACROSS SKIN ([2]; saturated solution in isostearic acid, 24 hours) [μg/10 mL] | CUMULATIVE AMOUNT OF COMPOUND DIFFUSED ACROSS SKIN ([2]; saturated solution in isostearic acid, 48 hours) [μg/10 mL] | CUMULATIVE AMOUNT OF COMPOUND DIFFUSED ACROSS SKIN ([2]; saturated solution in isostearic acid, 72 hours) [μg/10 mL] | CUMULATIVE AMOUNT OF COMPOUND DIFFUSED ACROSS SKIN ([2]; saturated solution in propylene glycol, 0 hours) [μg/10 mL] | CUMULATIVE AMOUNT OF COMPOUND DIFFUSED ACROSS SKIN ([2]; saturated solution in propylene glycol, 24 hours) [μg/10 mL] | CUMULATIVE AMOUNT OF COMPOUND DIFFUSED ACROSS SKIN ([2]; saturated solution in propylene glycol, 48 hours) [μg/10 mL] | CUMULATIVE AMOUNT OF COMPOUND DIFFUSED ACROSS SKIN ([2]; saturated solution in propylene glycol, 72 hours) [μg/10 mL] | CUMULATIVE AMOUNT OF COMPOUND DIFFUSED ACROSS SKIN ([2]; saturated solution in tetraglycol, 0 hours) [μg/10 mL] | CUMULATIVE AMOUNT OF COMPOUND DIFFUSED ACROSS SKIN ([2]; saturated solution in tetraglycol, 24 hours) [μg/10 mL] | CUMULATIVE AMOUNT OF COMPOUND DIFFUSED ACROSS SKIN ([2]; saturated solution in tetraglycol, 48 hours) [μg/10 mL] | CUMULATIVE AMOUNT OF COMPOUND DIFFUSED ACROSS SKIN ([2]; saturated solution in tetraglycol, 72 hours) [μg/10 mL]
1 | C#C[C@]1(O)CC[C@H]2[C@@H]3CCC4=CC(=O)CC[C@@H]4[C@H]3CC[C@@]21CC [levonorgestrel] | 0 | alpha-terpineol>isostearic acid>tetraglycol | – | – | – | – | – | – | – | – | – | – | – | – | – | – | – | –
2 | CCN(CCO)c1ccc(N=Nc2ccc([N+](=O)[O-])cc2)cc1 [Disperse Red 1] | – | alpha-terpineol>isostearic acid>tetraglycol | 0 | 11 | 25 | 45 | 0 | 3 | 6 | 12 | 0 | 1 | 4 | 10 | 0 | 1 | 3 | 6
